Experimental data from PubChem BioAssay AID179 (DTP/NCI, 2004).
Several values for one entry are separate records, joined by “and”; a condition that tells them apart may be missing. Equal entries are not always repeated. Activity calls are given as the source filed them.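 How the source made its calls: active means compounds giving half or more protection of infected cells from virus-caused growth loss, again on retest; inactive means the rest.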 Where a SMILES comes first, the peptide text is derived from it. The star is where a group is joined. Cbz = O=C(OCc1ccccc1)*; Boc = CC(C)(C)OC(=O)*; OBn = c1ccc(CO*)cc1; OtBu = CC(C)(C)O*

System: CEM cells HIV-1 protection, formazan growth assay
Experiment: NCI AIDS Antiviral Assay
Conditions: for IC50: measured here: growth of uninfected CEM cells
In short: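 Human CEM cells, uninfected and HIV-1-infected, exposed to five drug concentrations; growth measured by soluble formazan assay and scored as percent protection from infection, with protecting compounds retested.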

| SMILES | EC50 [µM] | IC50 | outcome |
| --- | --- | --- | --- |
| CC(C)C(NC(=O)Oc1ccccc1)C(=O)NC1c2c(Br)sc(Br)c2C(=O)C1O (stereo unspecified) | > 200 | 11.7 µM |  |
| Oc1ccc(-c2nc(-c3cccnc3)c(-c3ccc(F)cc3)[nH]2)cc1 | > 200 | 30.9 µM |  |
| CC(=O)NC(CCSSCCC(NC(C)=O)C(=O)ON1C(=O)CCC1=O)C(=O)ON1C(=O)CCC1=O (stereo unspecified) | > 200 | > 200 µM |  |
| N=c1nc(N)n2c(N)nc(=N)n12 | > 155 | > 155 µM |  |
| Oc1cc2ccccc2cc1OC(F)(F)c1nc2ccccc2o1 | > 200 | 12.3 µM |  |
| CC(C)(C)OC(=O)N(CCCN)CCCCN | > 200 |  |  |
| Cc1ccc(S(=O)(=O)N/N=C\C2c3ccccc3-c3ccccc32)cc1 | > 200 | 2.19 µM |  |
| CC(C)(C)OC(=O)NC(Cc1ccccc1)C(=O)NC(Cc1ccccc1)C(=O)NCC(=O)OCc1ccccc1 (stereo not drawn) (Boc-Phe-Phe-Gly-OBn; configuration not given here) | > 200 | 11.5 µM |  |
| CCOC(=O)CCC1(C)OCC(COC)O1 (stereo unspecified) | > 200 | > 200 µM |  |
| COC(OC)C(=O)[C@H]1[C@H](C(=O)OCC2OC(n3cc(C)c(=O)[nH]c3=O)CC2N=[N+]=[N-])C[C@H]2[C@@H]3CCC4=CC(=O)C=C[C@]4(C)[C@H]3[C@@H](O)C[C@@]21C (stereo partly specified) | 0.0331 | 13.2 µM |  |
| Nc1c(S(=O)(=O)O)cc(S(=O)(=O)O)c2ccc(N=Nc3ccc(/C=C/c4ccc(N=Nc5ccc6c(S(=O)(=O)O)cc(S(=O)(=O)O)c(N)c6c5O)cc4S(=O)(=O)O)c(S(=O)(=O)O)c3)c(O)c12 | 10.2 | 51.3 µM |  |
| O=C(/C=C/C(=O)N1CCCC1)N1CCCC1 | > 200 | > 200 µM |  |
| CCOC(=O)c1c(N)sc(C)c1C | > 200 | 117 µM |  |
| COc1ccccc1/C=C1/NC(=S)NC1=O | > 200 | > 200 µM |  |
| N#CCCN(CCCN(CCCN(C(=O)Nc1ccccc1)c1ccccc1)C(=O)Nc1ccccc1)C(=O)Nc1ccccc1 | > 200 | 87.1 µM |  |
| Cc1cccc(Nc2cn(CCOc3ccccc3)c(=O)[nH]c2=O)c1 | > 200 | 27.5 µM |  |
| N/N=C(/Cc1nc2ccc(C(=O)c3ccccc3)cc2[nH]c1=O)C(=O)Nc1ccc([N+](=O)[O-])cc1[N+](=O)[O-] | > 50.1 | > 50.1 µM |  |
| Cc1nc2cnc(Nc3ccccc3)nc2n(-c2ccccc2)c1=O | > 200 | > 200 µM |  |
| Cc1ccc(N2C(=O)/C(=c3\s/c(=C(/N)O)c(=N)n3-c3ccccc3)SC2=S)cc1 | > 4.57 | > 4.57 µM |  |
| Cc1cccc(N=Nc2c(S(=O)(=O)O)cc3cc(NC(=O)Nc4ccc5c(O)c(N=Nc6ccc7cc(S(=O)(=O)O)ccc7c6)c(S(=O)(=O)O)cc5c4)ccc3c2O)c1 | 15.8 | 75.9 µM |  |
| O=Cc1[nH]c(=O)[nH]c(=O)c1CCl | > 200 | 35.5 µM |  |
| O=C1c2ccccc2C(=O)C1C(c1ccc([N+](=O)[O-])cc1)C1C(=O)c2ccccc2C1=O | > 4.47 | > 4.47 µM |  |
| CC(C)(C)OC(=O)c1cc(NC(=S)c2ccccc2)ccc1Cl | 0.363 | 19.1 µM |  |
| Nc1nc(N)c(N=O)c(=O)[nH]1.[Cd] | > 200 | 1.74 µM |  |
| CN1C(=O)Cc2ccccc21 | > 200 | 151 µM |  |
| COC(=O)C1C(NCc2ccccc2)=CC(C)(C)C(C(=O)OC)C1c1ccccc1 (stereo unspecified) | > 200 | 166 µM |  |
| CCOC1=NC(C(F)(F)F)(C(F)(F)F)N=C(/N=C(/N)N(C)C(C(C)C)P(=O)(OC(C)C)OC(C)C)O1 (stereo unspecified) | > 200 | 31.6 µM |  |

| SMILES | EC50 [µM] | IC50 | outcome |
| --- | --- | --- | --- |
| CSc1n[nH]c(NC(=O)c2ccc(Cl)cc2)n1 | > 19.5 | > 19.5 µM |  |
| O=C1c2ccsc2C(=O)c2sccc21 | > 2 | 0.309 µM |  |
| O=C(CC(=O)c1ccc([N+](=O)[O-])cc1)C(=O)Nc1nccs1 | > 186 | 155 µM |  |
| COc1ccc(/C=C/C(=N/NC(=O)N/N=C(/C=C/c2ccc(OC)cc2)C(C)C)C(C)C)cc1 | > 200 | 37.2 µM |  |
| NC(N)=NS(=O)(=O)c1ccc(NC(=O)c2cccc3c(Nc4ccc(S(=O)(=O)N=C(N)N)cc4)c4ccccc4nc23)cc1 | > 29.5 | 22.4 µM |  |
| CC(C)CC(NC(=O)C(Cc1ccccc1)NC(=O)C1CCCN1C(=O)OCc1ccccc1)C(=O)OC(C)(C)C (stereo not drawn) (Cbz-Pro-Phe-Leu-OtBu; configuration not given here) | > 6.61 | > 6.61 µM |  |
| CC1(C)OC[C@@H](C[C@H](O)COCc2ccccc2)O1 | > 200 | > 200 µM |  |
| C[N+](C)=c1ccc2nc3c(ccc4ccccc43)oc-2c1 | > 60.3 | 8.32 µM |  |
| Cc1nnn[n-]1.N.N.N.N.N.[Cl-].[Co+3] | > 832 | > 832 µM |  |
| O=C1CCCCCN1C(=O)c1ccccc1 | > 1150 | 53.7 µM |  |
| Cc1ccc(NC(=O)/C(=N\NC(N)=O)c2c(O)c3ccccc3[nH]c2=O)cc1 | > 95.5 | > 95.5 µM |  |
| c1ccc([As](c2ccccc2)c2cccc[c]2[Bi]([c]2ccccc2)[c]2ccccc2)cc1 | > 10.7 | > 10.7 µM |  |
| CCCCc1ccc(OC2OC(COC(C)=O)C(OC(C)=O)C(OC(C)=O)C2OC(C)=O)cc1 (stereo unspecified) | > 93.3 | 49 µM and > 93.3 µM |  |
| NC(=N\N=C/c1ccc(Cl)c(Cl)c1)/C(N)=N\N=C/c1ccc(Cl)c(Cl)c1 |  |  | inactive |
| C[CH2][Sn]([CH2]C)([S]CCS(=O)(=O)O)[S]CCS(=O)(=O)O (tested in a mixture with another compound) | > 200 | 3.16 µM |  |
| Cn1c2c(c3ccccc31)CCN1C(=O)CCC21 (stereo unspecified) | > 537 | 288 µM |  |
| COc1ccc(/C=C/C(=O)c2c(-c3ccccc3)nn(C)c(=O)c2N2CCOCC2)cc1 | > 44.7 | > 44.7 µM |  |
| COC(=O)C(NC(=O)C12CCC(C)(C(=O)O1)C2(C)C)c1cc(C(C)(C)C)c(O)c(C(C)(C)C)c1 (stereo unspecified) | > 20 | > 20 µM |  |
| C/C(=N/OCCC(=O)O)C1CC1 | > 1450 | > 1450 µM |  |
| CC1CCC2(C)C(CC=C(C=O)C2(O)C=O)C12CO2 (stereo unspecified) |  |  | inactive |
| C[C@]12CC[C@H]3[C@@H](CCC4=CC(=O)[C@H](Br)C[C@@]43C)[C@@H]1CC[C@@H]2C(=O)CBr | > 2 | 0.316 µM |  |
| Cc1c2n(c3ccccc13)CC1C2N(C)OC1(C)C (stereo unspecified) | > 263 | > 263 µM |  |
| C[C@@H](NC(=O)CNC(=O)OC(C)(C)C)C(=O)N[C@@H](Cc1ccccc1)C(=O)OCc1ccccc1 (HELM PEPTIDE1{[CC(C)(C)OC(=O)[*:2]].G.[dA].F.[c1ccc(CO[*:1])cc1]}$$$$V2.0) | > 200 | 97.7 µM |  |
| COc1ccc(/C=C2\CCc3cc(OC)c(OC)cc3C2=O)cc1 |  |  | inactive |
| Cc1ccc2c(c1)C(=O)c1[nH]c3ccc(F)cc3c1CO2 | > 200 | > 200 µM |  |
| COc1cccc(N2C(=O)C3c4[nH]c5ccc(C)cc5c4C4CCC(C)CC4C3C2=O)c1 (stereo unspecified) | > 100 | > 100 µM |  |
| CC(=O)OC1CC2C(C)(C)C(=O)C=C[C@]2(C)C2CCC3(C)C(=CC(=O)C3c3ccoc3)[C@]12C (stereo partly specified) | > 22.4 | 14.1 µM | inactive |

| SMILES | EC50 [µM] | IC50 | outcome |
| --- | --- | --- | --- |
| Clc1ccc(-c2cc(-c3cc(-c4ccc(Cl)cc4)n[nH]3)[nH]n2)cc1 | > 200 | > 200 µM |  |
| CN(c1ccc(Cl)cc1)S(=O)(=O)c1cccc([N+](=O)[O-])c1 | > 200 |  |  |
| CCCCCCCCCCCCCCCC[N+](C)(C)Cc1ccc(C[N+](C)(C)CCCCCCCCCCCCCCCC)cc1 |  |  | inactive |
| COc1ccc(N2C(=O)C3c4[nH]c5ccccc5c4C4c5ccccc5CC4C3C2=O)cc1 (stereo unspecified) | > 200 | > 200 µM |  |
| COc1cccc(C2c3cc4c(cc3OC(N3CCCC3)C2C)OCO4)c1 (stereo unspecified) | > 200 | 3.8 µM |  |
| CC(=O)[O-].[O-]c1c(Cl)cc(Cl)cc1/C=N/Nc1ccccn1.[Zn+2] |  |  | inactive |
| S=C1CCSc2c(ccc3ccccc23)N1 | > 200 | 166 µM |  |
| COC1OC(COC(=O)NCCCCC(=O)C(F)(F)C(F)(F)C(F)(F)C(F)(F)C(F)(F)C(F)(F)C(F)(F)F)C(O)C(O)C1O (stereo unspecified) | > 200 | 2.95 µM and 6.03 µM |  |
| COc1cc(/C=N/NC2=NCCN2)ccc1O | > 200 | > 200 µM |  |
| CC1S(=O)C(C)S(=O)C(C)S1=O (stereo unspecified) |  |  | inactive |
| CC(C)(C)OC(=O)Cn1ncn(NC(=O)Cc2ccccc2)c1=S | > 200 | > 200 µM |  |
| O=c1[nH]c(Nc2ccc(Cl)cc2)nc2nc[nH]c12 | > 100 | 89.1 µM |  |
| Nc1ncnc2c1ncn2C1C(O)C(CO)C1CO (stereo unspecified) | > 186 | > 186 µM |  |
| O=C1OC(N=P(c2ccccc2)(c2ccccc2)c2ccccc2)C(N=P(c2ccccc2)(c2ccccc2)c2ccccc2)=C1Cl (stereo unspecified) | > 20 | 18.2 µM |  |
| c1nncn1C12C3C4C5C3C1C5C42 (stereo unspecified) | > 200 | > 200 µM |  |
| NC(CC(=O)N/C=N\O)C(=O)O (stereo unspecified) | > 200 | > 200 µM |  |
| CC(=O)c1sc2c(c1OC(=O)c1ccccc1)c(=O)n(-c1ccccc1)c(=S)n2-c1ccccc1 | > 2 | 0.0631 µM |  |
| O=S(=O)(c1ccc(NC2=NC(c3ccc(O)cc3)(c3ccccc3O)c3ccccc32)cc1)c1ccc(NC2=NC(c3ccc(O)cc3)(c3ccccc3O)c3ccccc32)cc1 (stereo unspecified) | > 200 | 3.47 µM |  |
| O=c1oc2c(ccc3occc32)c(N2CCCCC2)c1-c1ccccc1 |  |  | inactive |
| Nc1nnc(Sc2ccc([N+](=O)[O-])cc2)s1 | > 195 | 11.7 µM |  |
| O=C1CN(Cc2ccccc2)CC(=O)N2C(c3ccccc3)CCCN12 (stereo unspecified) |  |  | inactive |
| CC1(CO)COC(=O)C(C)(C2(C)NC(C)(CO)COC2=O)N1 (stereo unspecified) | > 794 | 28.2 µM |  |
| COC(=O)C1Cc2ccc3c(c2C1=O)CCCC3 (stereo unspecified) | > 200 | 186 µM |  |
| Cc1ccc2cc([N+](=O)[O-])c3ccc(C)nc3c2n1.Cc1ccc2cc([N+](=O)[O-])c3ccc(C)nc3c2n1.O=C1OC(C(O)C[O-])C(O)=C1O.[Cu+] | > 12.6 | 1.82 µM |  |
| CC(=O)OCCSSCCOC(C)=O | > 200 | 89.1 µM |  |
| CCOC(=O)[C@H]1Nc2ccc([N+](=O)[O-])cc2C2c3ccccc3CC21 (stereo partly specified) | > 11.2 | > 11.2 µM |  |
